Reference: PubChem BioAssay (NCI)
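Grown in 96-well plates, cells were treated for 48 hours with each compound at five concentrations. Insufficient inhibition: endpoint recorded as highest concentration tested. At the TGI there is no net growth.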

What was measured:
Experiment in all cases: DTP human tumour cell line panel, 48 h
ACHN renal = system: ACHN renal
OVCAR-4 ovarian = system: OVCAR-4 ovarian
NCI-H460 lung = system: NCI-H460 lung
786-0 renal = system: 786-0 renal
NCI-H522 lung = system: NCI-H522 lung
HT29 colon = system: HT29 colon
MDA-MB-435 = system: MDA-MB-435
LOX IMVI melanoma = system: LOX IMVI melanoma
SW-620 colon = system: SW-620 colon
MDA-MB-231 breast = system: MDA-MB-231 breast
SK-MEL-2 melanoma = system: SK-MEL-2 melanoma
OVCAR-5 ovarian = system: OVCAR-5 ovarian
SNB-19 CNS = system: SNB-19 CNS
HCT-116 colon = system: HCT-116 colon
SNB-75 CNS = system: SNB-75 CNS
SF-295 CNS = system: SF-295 CNS
HOP-92 NSCLC = system: HOP-92 NSCLC
HCC-2998 colon = system: HCC-2998 colon
M14 melanoma = system: M14 melanoma

Structure (SMILES)	TGI (ACHN renal)	TGI (OVCAR-4 ovarian)	TGI (NCI-H460 lung)	TGI (786-0 renal)	TGI (NCI-H522 lung)	TGI (HT29 colon)	TGI (MDA-MB-435)	TGI (LOX IMVI melanoma)	TGI (SW-620 colon)	TGI (MDA-MB-231 breast)	TGI (SK-MEL-2 melanoma)	TGI (OVCAR-5 ovarian)	TGI (SNB-19 CNS)	TGI (HCT-116 colon)	TGI (SNB-75 CNS)	TGI (SF-295 CNS)	TGI (HOP-92 NSCLC)	TGI (HCC-2998 colon)	TGI (M14 melanoma)
CCCC(=O)Nc1cc(/C=C/C(=O)N2CC(CCl)c3c2cc(OCc2ccccc2)c2[nH]cc(C)c32)n(C)c1 (stereo not drawn)	0.0833 µM	0.889 µM	0.0588 µM	2.89 µM	0.0267 µM	0.488 µM	0.918 µM	6.71 µM	> 25 µM	> 25 µM	0.218 µM	1.22 µM	24.6 µM	0.225 µM	0.381 µM	0.334 µM	0.213 µM	–	–
CC(C)(C)OC(=O)N[C@H]1CC(O)c2ccccc2N(CC(=O)O)C1=O (stereo partly drawn)	> 100 µM	> 100 µM	> 100 µM	> 100 µM	> 100 µM	> 100 µM	–	> 100 µM	> 100 µM	–	> 100 µM	–	> 100 µM	> 100 µM	> 100 µM	> 100 µM	> 100 µM	> 100 µM	> 100 µM
COC(=O)/C(=N\NC(N)=O)C(C(=O)C(=O)Nc1ccccc1OC)c1nc2ccc([N+](=O)[O-])cc2[nH]c1=O (stereo not drawn)	> 100 µM	> 100 µM	> 100 µM	> 100 µM	> 100 µM	> 100 µM	> 100 µM	> 100 µM	> 100 µM	> 100 µM	> 100 µM	> 100 µM	> 100 µM	> 100 µM	> 100 µM	> 100 µM	> 100 µM	> 100 µM	> 100 µM
S=C(NNC1=NCCCCN1)Nc1ccc(Cl)cc1	90.2 µM	> 100 µM	> 100 µM	> 100 µM	42.3 µM	> 100 µM	> 100 µM	> 100 µM	> 100 µM	> 100 µM	> 100 µM	> 100 µM	> 100 µM	> 100 µM	> 100 µM	57.5 µM	> 100 µM	> 100 µM	22.1 µM
Cc1[nH]c(=O)nc2c1C(NCCCN(C)C)c1cc(Cl)ccc1N2 (stereo not drawn)	30.2 µM	–	29 µM	27.7 µM	28.5 µM	22.2 µM	–	24.5 µM	28.6 µM	–	31.5 µM	–	31.2 µM	28.5 µM	26.2 µM	30.7 µM	23.4 µM	30.1 µM	21.3 µM
O=C(CC(CC(=O)Oc1c(Br)cc(Br)cc1C(=O)O)C(=O)Oc1c(Br)cc(Br)cc1C(=O)O)Oc1c(Br)cc(Br)cc1C(=O)O	> 100 µM	> 100 µM	> 100 µM	> 100 µM	55.4 µM	> 100 µM	–	> 100 µM	> 100 µM	–	> 100 µM	> 100 µM	> 100 µM	> 100 µM	93.3 µM	> 100 µM	49.8 µM	> 100 µM	> 100 µM
CC(=O)OC1CC2CCN3C(=O)c4cc5c(cc4[C@H](C1OC(C)=O)C23)OCO5 (stereo partly drawn)	> 100 µM	–	> 100 µM	> 100 µM	> 100 µM	> 100 µM	–	> 100 µM	> 100 µM	–	–	–	> 100 µM	> 100 µM	> 100 µM	> 100 µM	–	> 100 µM	> 100 µM
COC(=O)[C@H](Cc1ccccc1)NC(=O)/C(=C/C(C)C)NC(=O)[C@H](CCSC)NC=O	> 100 µM	> 100 µM	> 100 µM	> 100 µM	> 100 µM	> 100 µM	–	> 100 µM	> 100 µM	–	> 100 µM	–	> 100 µM	> 100 µM	> 100 µM	> 100 µM	> 100 µM	> 100 µM	> 100 µM
COc1ccc(N=C2S/C(=N\C(=Nc3ccccc3)SCc3ccccc3)N(c3ccccc3)C2=Nc2ccc(OC)cc2)cc1	–	–	–	> 100 µM	–	> 100 µM	–	–	> 100 µM	> 100 µM	> 100 µM	–	> 100 µM	> 100 µM	> 100 µM	–	> 100 µM	> 100 µM	> 100 µM
NC1=NC2=c3ccccc3=C(c3cnccn3)C2(c2cnccn2)c2ccccc21 (stereo not drawn)	> 100 µM	> 100 µM	> 100 µM	> 100 µM	> 100 µM	> 100 µM	–	> 100 µM	> 100 µM	–	> 100 µM	> 100 µM	> 100 µM	> 100 µM	> 100 µM	> 100 µM	> 100 µM	> 100 µM	> 100 µM
O=C(C=C1SCCS1)/C=C\c1ccc(Cl)cc1	–	> 100 µM	–	> 100 µM	> 100 µM	> 100 µM	–	> 100 µM	> 100 µM	–	> 100 µM	–	> 100 µM	> 100 µM	> 100 µM	> 100 µM	> 100 µM	84.1 µM	> 100 µM
CCCCCCCCOCC(O)COC(C)C (stereo not drawn)	> 100 µM	> 100 µM	> 100 µM	> 100 µM	–	> 100 µM	–	> 100 µM	> 100 µM	–	–	> 100 µM	> 100 µM	> 100 µM	–	> 100 µM	81.8 µM	58.3 µM	> 100 µM
